Reference: patent publication US20100314318A1, “HALOGENATED AMIDE BIOCIDAL COMPOUNDS AND METHODS FOR TREATING WATER SYSTEMS AT NEAR NEUTRAL TO HIGH PH” (priority 2009, published 2010)
Read-outs that look alike come from different tables or passages of the source.

Key:
[1] = test system: Pseudomonas aeruginosa ATCC 10145; test: Bactericidal efficacy in synthetic salts water pH 8.5; format: cell-based; settings: for Dosage required for 3 log10 bacterial reduction (ppm, active): 37° C.; for long term bactericidal efficacy compared with DBNPA: after 48 hour incubation and rechallenge with P. aeruginosa cells
Protocol: A sterile synthetic salts water is prepared and inoculated with Pseudomonas aeruginosa ATCC 10145 at about 10^7 CFU/mL. The synthetic water is prepared to contain (in 1 liter deionized water) the following: CaCl2, 0.2203 g; MgSO4, 0.1847 g; and NaHCO3, 0.2033 g. The final pH of the synthetic cooling water is adjusted to 8.5. Aliquots of the cell suspension are then treated with biocides at selected dosage levels. The same contaminated water sample without biocide is used as control. After incubating at 37° C. for different time intervals, numbers of surviving bacteria are enumerated using a serial dilution method. After incubating for 24 hr, all cell suspensions are reinoculated with Pseudomonas aeruginosa ATCC 10145 at 10^6 CFU/mL. The efficacy results for […]

[2] = test system: bacteria isolated from Cooling Tower water; test: Efficacy in sterile artificial Cooling Tower water (approx. pH 8.5); format: cell-based; settings: 30° C.
[3] = test system: amoeba (Acanthamoeba polypohaga) fed Legionella pneumophila (AfLp); format: cell-based; settings: for Active concentration (ppm) required for complete kill (6 log reduction): Amoeba fed Legionella
Free Legionella = format: cell-based, Legionella pneumophila
[4] = test system: bacteria isolated from field; test: Efficacy in semi-synthetic metal working fluid; format: cell-based; settings: room temperature, MWF
[5] = test system: four bacterial species (Pseudomonas aeruginosa, Klebsiella pneumoniae, Bacillus subtilis, Staphylococcus aureus); test: Preservation of kaolin slurry Kaolux HS (pH 6.6); format: cell-based, bacteria
Text: Two samples of kaolin slurries (Kaolux HS [particle size finer than 2 microns, 83.4%; 64.9% solids; pH 6.6] and Kaogloss [particle size finer than 2 microns, 90.7%; 70.1% solids; pH 6.3]), are obtained from Thiele Kaolin Company, Sandersville, Ga. Samples of the two slurries are inoculated with four bacterial species (described in Example 8), sampled to confirm the initial size of the bacterial community, and treated with selected concentrations of DBMAL. Samples for bacterial enumeration are collected after 24 hr and 48 hr incubation periods.

bacterial consortium = test: Preservation of calcium carbonate slurry Hydrocarb 90 (pH 8.7)
[6] = test system: mixed species consortium of bacteria; test: Preservation of 10% CaCO3 suspensions; settings: 10 ppm, pH 7.0, 8.0, 9.0
[7] = Stability against hydrolysis in buffered dilute solutions, HPLC
[8] = test system: bacteria in Cooling Tower water; test: Efficacy in cooling tower water sample (about pH 8.3), serial dilution count; format: cell-based
[9] = 48 hr, pH 8.5, reinoculated after 24 hr

SMILES: N#CC(Br)(Br)C(=O)NCCCO [DBCHA, 2,2-Dibromo-2-cyano-N-(3-hydroxypropyl)acetamide]
- Dosage required for 3 log10 bacterial reduction (ppm, active) ([1]; 1 hr, pH 8.5): 4.4 ppm
- Dosage required for 3 log10 bacterial reduction (ppm, active) ([1]; 3 hr, pH 8.5): 4.4 ppm
- Dosage required for 3 log10 bacterial reduction (ppm, active) ([1]; 24 hr, pH 8.5): 9.9 ppm
- Dosage required for 3 log10 bacterial reduction (ppm, active) [1, 9]: 33.3 ppm
- long term bactericidal efficacy compared with DBNPA [1]: better long term efficacy than DBNPA

SMILES: CCCCCCCC[N+](C)(C)CCCCCCCC.[Cl-] [Dioctyl dimethyl ammonium chloride]
- Minimum biocide dosage (ppm, active) needed for at least 3 log10 bacterial reduction ([2]; 1 h): 29.0 ppm
- Minimum biocide dosage (ppm, active) needed for at least 3 log10 bacterial reduction ([2]; 3 h): 29.0 ppm
- Minimum biocide dosage (ppm, active) needed for at least 3 log10 bacterial reduction ([2]; 24 h): 56.0 ppm
- Minimum biocide dosage (ppm, active) needed for at least 3 log10 bacterial reduction ([2]; 48 h, reinoculated): 56.0 ppm
- Minimum biocide dosage (ppm, active) needed for at least 3 log10 bacterial reduction ([2]; 72 h, reinoculated): 79.0 ppm
- Minimum biocide dosage (ppm, active) needed for at least 3 log10 bacterial reduction ([2]; 96 h, reinoculated): >79.0 ppm

SMILES: CC1(C)C(=O)N(Cl)C(=O)N1Br [BCDMH, 1-Bromo-3-chloro-5,5-dimethylhydantoin]
- Minimum biocide dosage (ppm, active) needed for at least 3 log10 bacterial reduction ([2]; 1 h): 7.0 ppm
- Minimum biocide dosage (ppm, active) needed for at least 3 log10 bacterial reduction ([2]; 3 h): 26.0 ppm
- Minimum biocide dosage (ppm, active) needed for at least 3 log10 bacterial reduction ([2]; 24 h): >70.0 ppm
- Minimum biocide dosage (ppm, active) needed for at least 3 log10 bacterial reduction ([2]; 48 h, reinoculated): >70.0 ppm
- Minimum biocide dosage (ppm, active) needed for at least 3 log10 bacterial reduction ([2]; 72 h, reinoculated): >70.0 ppm
- Minimum biocide dosage (ppm, active) needed for at least 3 log10 bacterial reduction ([2]; 96 h, reinoculated): >70.0 ppm

SMILES: CCCCCCCCCC[N+](C)(C)CCCCCCCCCC.[Cl-] [DDAC, didecyl dimethyl ammonium chloride]
- Active concentration (ppm) required for complete kill (6 log reduction) ([3]; 2 hours): 60 ppm
- Active concentration (ppm) required for complete kill (6 log reduction) ([3]; 24 hours): 40 ppm
- Active concentration (ppm) required for complete kill (6 log reduction) (Free Legionella; 2 hours): 20 ppm
- Active concentration (ppm) required for complete kill (6 log reduction) (Free Legionella; 24 hours): 15 ppm

SMILES: CCN1CN(CC)CN(CC)C1 [Triazine, 1,3,5-triethylhexahydro-1,3,5-triazine]
- Minimum dosage (ppm, active) required for at least 3 log10 reduction in bacterial counts ([4]; 2 h): 1934 ppm
- Minimum dosage (ppm, active) required for at least 3 log10 reduction in bacterial counts ([4]; 4 h): 1487 ppm
- Minimum dosage (ppm, active) required for at least 3 log10 reduction in bacterial counts ([4]; 24 h): 1144 ppm
- Minimum dosage (ppm, active) required for at least 3 log10 reduction in bacterial counts ([4]; 48 h): 1144 ppm
- Minimum dosage (ppm, active) required for at least 3 log10 reduction in bacterial counts ([4]; 72 h): 1144 ppm
- Minimum dosage (ppm, active) required for at least 3 log10 reduction in bacterial counts ([4]; 96 h): 1144 ppm

SMILES: O=CCCCC=O [Glutaraldehyde]
- Active concentration (ppm) required for complete kill (6 log reduction) ([3]; 2 hours): 20 ppm
- Active concentration (ppm) required for complete kill (6 log reduction) ([3]; 24 hours): 15 ppm
- Minimum biocide dosage (ppm, active) needed for at least 3 log10 bacterial reduction ([2]; 1 h): 36.0 ppm
- Minimum biocide dosage (ppm, active) needed for at least 3 log10 bacterial reduction ([2]; 3 h): 26.0 ppm
- Minimum biocide dosage (ppm, active) needed for at least 3 log10 bacterial reduction ([2]; 24 h): 26.0 ppm
- Minimum biocide dosage (ppm, active) needed for at least 3 log10 bacterial reduction ([2]; 48 h, reinoculated): 51.0 ppm
- Minimum biocide dosage (ppm, active) needed for at least 3 log10 bacterial reduction ([2]; 72 h, reinoculated): 51.0 ppm
- Minimum biocide dosage (ppm, active) needed for at least 3 log10 bacterial reduction ([2]; 96 h, reinoculated): 71.0 ppm
- Active concentration (ppm) required for complete kill (6 log reduction) (Free Legionella; 2 hours): 10 ppm
- Active concentration (ppm) required for complete kill (6 log reduction) (Free Legionella; 24 hours): 5 ppm

SMILES: NC(=O)C(Br)(Br)C(N)=O [DBMAL, 2,2-Dibromomalonamide]
- change in numbers of viable bacteria (FIG. 3) ([5]; 100 ppm to 150 ppm, 48 hr contact time): decrease slightly
- decrease in viable bacteria (FIG. 3) ([5]; 175 ppm): approximately one
- reduction in viable bacteria (FIG. 3) ([5]; concentrations higher than 175 ppm): at least five
- change in populations of bacteria (FIG. 6) (bacterial consortium; 5 ppm, 24-hr contact): decrease relatively little
- decrease in numbers of bacteria (FIG. 6) (bacterial consortium; 10 ppm, 24-hr contact): more than 2.5 orders of magnitude
- difference in numbers of bacteria versus samples with 50 ppm DBNPA (FIG. 7) (bacterial consortium; 20 ppm DBMAL, 24-hr contact time): approximately one-quarter
- single dose efficacy comparison (FIG. 7) (bacterial consortium; single dose of 20 ppm, 24-hr contact time): as effective as 50 ppm DBNPA or 16 ppm CMIT
- bacterial counts (FIG. 5) ([6]; 2-hr contact): increased inhibition of the bacteria at pH 9.0 versus pH 7.0 and 8.0
- bacterial counts (FIG. 5) ([6]; 24 hr contact, limit of detection): 1.0 log10
- Calculated Percent Reduction of the Active Ingredient ([7]; pH 6.9, T = 30 C., 48 hours): 0%
- Calculated Percent Reduction of the Active Ingredient ([7]; pH 6.9, T = 30 C., 72 hours): 0%
- Calculated Percent Reduction of the Active Ingredient ([7]; pH 8, T = −1 C., 48 hours): 0%
- Calculated Percent Reduction of the Active Ingredient ([7]; pH 8, T = −1 C., 72 hours): 0%
- Calculated Percent Reduction of the Active Ingredient ([7]; pH 8, T = −1 C., 96 hours): 0%
- Calculated Percent Reduction of the Active Ingredient ([7]; pH 9, T = −1 C., 48 hours): 21%
- Calculated Percent Reduction of the Active Ingredient ([7]; pH 9, T = −1 C., 72 hours): 12%
- Calculated Percent Reduction of the Active Ingredient ([7]; pH 9, T = −1 C., 96 hours): 24%
- Minimum dosage (ppm, active) required for at least 3 log10 reduction in bacterial counts ([4]; 2 h): 57 ppm
- Minimum dosage (ppm, active) required for at least 3 log10 reduction in bacterial counts ([4]; 4 h): 44 ppm
- Minimum dosage (ppm, active) required for at least 3 log10 reduction in bacterial counts ([4]; 24 h): 44 ppm
- Minimum dosage (ppm, active) required for at least 3 log10 reduction in bacterial counts ([4]; 48 h): 34 ppm
- Minimum dosage (ppm, active) required for at least 3 log10 reduction in bacterial counts ([4]; 72 h): 26 ppm
- Minimum dosage (ppm, active) required for at least 3 log10 reduction in bacterial counts ([4]; 96 h): 34 ppm
- Bacterial log10 reduction after biocide addition ([8]; 12.5 ppm active, 1 hr): 1.2 log10
- Bacterial log10 reduction after biocide addition ([8]; 12.5 ppm active, 48 hrs, re-inoculated): 5.2 log10
- Bacterial log10 reduction after biocide addition ([8]; 12.5 ppm active, 72 hrs, re-inoculated): 1.2 log10
- Bacterial log10 reduction after biocide addition ([8]; 12.5 ppm active, 96 hrs, re-inoculated): 0.8 log10
- Bacterial log10 reduction after biocide addition ([8]; 25 ppm active, 1 hr): 4.3 log10
- Bacterial log10 reduction after biocide addition ([8]; 25 ppm active, 3 hr): >=5.7 log10
- Bacterial log10 reduction after biocide addition ([8]; 25 ppm active, 24 hrs): >=6.3 log10
- Bacterial log10 reduction after biocide addition ([8]; 25 ppm active, 48 hrs, re-inoculated): 6.0 log10
- Bacterial log10 reduction after biocide addition ([8]; 25 ppm active, 72 hrs, re-inoculated): 3.0 log10
- Bacterial log10 reduction after biocide addition ([8]; 25 ppm active, 96 hrs, re-inoculated): 3.2 log10
- Bacterial log10 reduction after biocide addition ([8]; 50 ppm active, 1 hr): >=5.3 log10
- Bacterial log10 reduction after biocide addition ([8]; 50 ppm active, 3 hr): 5.5 log10
- Bacterial log10 reduction after biocide addition ([8]; 50 ppm active, 24 hrs): >=6.3 log10
- Bacterial log10 reduction after biocide addition ([8]; 50 ppm active, 48 hrs, re-inoculated): >=6.3 log10
- Bacterial log10 reduction after biocide addition ([8]; 50 ppm active, 72 hrs, re-inoculated): 3.8 log10
- Bacterial log10 reduction after biocide addition ([8]; 50 ppm active, 96 hrs, re-inoculated): 4.2 log10
- duration of effectiveness (>3 log10 killing) compared with DBNPA ([8]; same active concentration of 12.5 ppm): one day more
- duration of effectiveness (>3 log10 killing) compared with DBNPA ([8]; same active concentration of 50 ppm and 25 ppm): two days more
- Dosage required for 3 log10 bacterial reduction (ppm, active) ([1]; 1 hr, pH 8.5): 14.8 ppm
- Dosage required for 3 log10 bacterial reduction (ppm, active) ([1]; 3 hr, pH 8.5): 6.6 ppm
- Dosage required for 3 log10 bacterial reduction (ppm, active) ([1]; 24 hr, pH 8.5): 6.6 ppm
- Dosage required for 3 log10 bacterial reduction (ppm, active) [1, 9]: 6.6 ppm
- long term bactericidal efficacy compared with DBNPA [1]: better than DBNPA
- Active concentration (ppm) required for complete kill (6 log reduction) ([3]; 2 hours): 12.5 ppm
- Active concentration (ppm) required for complete kill (6 log reduction) ([3]; 24 hours): 3.12 ppm
- level needed for 6 log kill of AfLp relative to that needed for free cells ([3]; corresponding time points (2 and 24 hours)): about twice
- Minimum biocide dosage (ppm, active) needed for at least 3 log10 bacterial reduction ([2]; 1 h): 15.0 ppm
- Minimum biocide dosage (ppm, active) needed for at least 3 log10 bacterial reduction ([2]; 3 h): 11.0 ppm
- Minimum biocide dosage (ppm, active) needed for at least 3 log10 bacterial reduction ([2]; 24 h): 5.0 ppm
- Minimum biocide dosage (ppm, active) needed for at least 3 log10 bacterial reduction ([2]; 48 h, reinoculated): 5.0 ppm
- Minimum biocide dosage (ppm, active) needed for at least 3 log10 bacterial reduction ([2]; 72 h, reinoculated): 5.0 ppm
- Minimum biocide dosage (ppm, active) needed for at least 3 log10 bacterial reduction ([2]; 96 h, reinoculated): 15.0 ppm
- Active concentration (ppm) required for complete kill (6 log reduction) (Free Legionella; 2 hours): 6.25 ppm
- Active concentration (ppm) required for complete kill (6 log reduction) (Free Legionella; 24 hours): 1.56 ppm
